Results reported in the Kinase Knowledgebase extract (Sharma et al. 2016).

biological target: EGFR (UniProt P00533)
Sequence (P00533 whole entry, looked up): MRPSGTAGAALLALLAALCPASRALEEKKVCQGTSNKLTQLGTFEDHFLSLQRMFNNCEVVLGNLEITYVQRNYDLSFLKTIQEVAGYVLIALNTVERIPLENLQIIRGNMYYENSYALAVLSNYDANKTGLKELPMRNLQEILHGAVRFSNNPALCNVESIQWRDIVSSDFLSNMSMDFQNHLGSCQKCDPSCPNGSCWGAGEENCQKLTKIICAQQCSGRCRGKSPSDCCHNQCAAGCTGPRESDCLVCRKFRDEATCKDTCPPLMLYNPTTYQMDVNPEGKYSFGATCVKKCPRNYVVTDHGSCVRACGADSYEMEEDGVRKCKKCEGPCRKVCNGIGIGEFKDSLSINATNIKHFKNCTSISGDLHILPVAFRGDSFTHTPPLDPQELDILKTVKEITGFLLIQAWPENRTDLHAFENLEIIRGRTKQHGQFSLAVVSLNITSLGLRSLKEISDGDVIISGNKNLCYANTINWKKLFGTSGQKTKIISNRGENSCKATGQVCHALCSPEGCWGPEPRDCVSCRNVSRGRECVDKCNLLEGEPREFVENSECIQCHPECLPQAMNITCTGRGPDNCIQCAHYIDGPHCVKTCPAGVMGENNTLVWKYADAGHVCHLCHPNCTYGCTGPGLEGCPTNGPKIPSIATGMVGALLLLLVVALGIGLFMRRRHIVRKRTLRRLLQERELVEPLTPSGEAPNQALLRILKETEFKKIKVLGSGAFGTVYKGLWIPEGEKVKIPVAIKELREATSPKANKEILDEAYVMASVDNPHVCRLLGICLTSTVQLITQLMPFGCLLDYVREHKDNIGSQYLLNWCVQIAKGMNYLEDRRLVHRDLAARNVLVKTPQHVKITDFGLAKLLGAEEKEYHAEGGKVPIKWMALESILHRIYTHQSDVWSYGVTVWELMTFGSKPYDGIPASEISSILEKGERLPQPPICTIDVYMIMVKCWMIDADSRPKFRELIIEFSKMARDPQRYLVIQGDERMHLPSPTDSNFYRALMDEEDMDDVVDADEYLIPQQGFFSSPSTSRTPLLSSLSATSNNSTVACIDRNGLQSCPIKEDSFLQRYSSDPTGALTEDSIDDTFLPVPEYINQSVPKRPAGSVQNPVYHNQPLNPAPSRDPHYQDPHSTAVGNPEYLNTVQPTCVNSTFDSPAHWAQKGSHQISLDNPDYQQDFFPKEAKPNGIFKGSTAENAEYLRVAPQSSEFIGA

IC50, 0.003 to 25 µM:
COC(=O)c1cn2ncnc(C3C(=O)Nc4ncccc43)c2c1C (stereo not drawn), CCOC(=O)c1c(CC)c2c(Nc3ccc4c(cnn4Cc4ccccc4)c3)ncnn2c1Br, COC(=O)c1cn2ncnc(-n3c(=O)[nH]c4ccccc43)c2c1C, COC(=O)c1cn2ncnc(Nc3cccc(O)c3C)c2c1C, Cc1ccc(Nc2ncnn3cc(C(=O)NCCN(C)C)c(C)c23)cc1O, COC(=O)c1cn2ncnc(C3C(=O)Nc4ccc(S(=O)(=O)NCCN5CCCC5)cc43)c2c1C (stereo not drawn), CCOC(=O)c1cn2ncnc(Cc3ccc(F)c(Cl)c3)c2c1C(C)C, Clc1ccc(Nc2ncnn3c(Br)ccc23)cc1, Cc1c(C(=O)NCC2CCCO2)cn2ncnc(C3C(=O)Nc4ccccc43)c12 (stereo not drawn), COC(=O)c1cn2ncnc(C3C(=O)Nc4cc(C#N)ccc43)c2c1C (stereo not drawn), COC(=O)c1cn2ncnc(C3C(=O)Nc4ccccc43)c2c1C (stereo not drawn), CCOC(=O)c1cn2ncnc(NCCc3ccccc3)c2c1CC, Cc1ccc(Nc2ncnn3cc(C(=O)NCCCN4CCCC4)c(C)c23)cc1O, Cc1c(C(=O)NCCCN2CCOCC2)cn2ncnc(C3C(=O)Nc4ccccc43)c12 (stereo not drawn), COC(=O)c1cn2ncnc(Nc3ccc4[nH]nnc4c3)c2c1C, CCc1c(CO)c(Br)n2ncnc(Nc3ccc4c(cnn4Cc4ccccc4)c3)c12, Cc1c(N)cn2ncnc(C3C(=O)Nc4ccccc43)c12 (stereo not drawn), CCOC(=O)c1cn2ncnc(Nc3ccc4cn[nH]c4c3)c2c1CC, CCOC(=O)c1cn2ncnc(Nc3ccc(C)c(NS(C)(=O)=O)c3)c2c1CC, CCc1ccn2ncnc(Nc3ccc(C)c(O)c3)c12, CCc1c(CO)cn2ncnc(Nc3ccc4c(cnn4Cc4ccccc4)c3)c12, COc1c(OCc2ccccc2)cn2ncnc(C3C(=O)Nc4ccccc43)c12 (stereo not drawn), Fc1cc(Br)ccc1Nc1ncnn2cccc12, CCOC(=O)c1cn2ncnc(NCC3(O)CCCCC3)c2c1CC, COC(=O)c1cn2ncnc(Nc3cccc4cnccc34)c2c1C, COC(=O)c1cn2ncnc(Nc3ccc(C)cn3)c2c1C, Cc1c(NC(=O)NCCCN2CCOCC2)cn2ncnc(C3C(=O)Nc4ccccc43)c12 (stereo not drawn), CCOC(=O)c1cn2ncnc(NCCCn3ccnc3)c2c1CC, COC(=O)c1cn2ncnc(Nc3cccc(C#N)c3)c2c1C, Cc1c(C(=O)NCCCN2CCOCC2)cn2ncnc(C3C(=O)Nc4cc(F)ccc43)c12 (stereo not drawn), Cc1c(N(C)C)c(CO)n2ncnc(C3C(=O)Nc4ccccc43)c12 (stereo not drawn), COC(=O)c1cn2ncnc(Nc3ccc(NC(C)=O)nc3)c2c1C, COC(=O)c1cn2ncnc(-n3[nH]c(C)cc3=O)c2c1C, CCOC(=O)c1cn2ncnc(Nc3ccc(C)c(O)c3)c2c1Cc1ccccc1, COC(=O)c1cn2ncnc(C3C(=O)Nc4ccc(S(=O)(=O)NCCO)cc43)c2c1C (stereo not drawn), CCOC(=O)c1cn2ncnc(Nc3ccc(C)cc3)c2c1CC, COC(=O)c1cc2c(C3C(=O)Nc4ccccc43)ncnn2c1 (stereo not drawn), COC(=O)c1cn2ncnc(Nc3cccc(C(=O)O)c3)c2c1C, COC(=O)c1cn2ncnc(Nc3ccc(OC)cc3)c2c1C, Cc1c(C(=O)NCCCN2CCOCC2)cn2ncnc(C3C(=O)Nc4ccc(F)cc43)c12 (stereo not drawn), COC(=O)c1cn2ncnc(Nc3cccc(NS(C)(=O)=O)c3)c2c1C, CCOC(=O)c1cn2ncnc(NCC3CCCCC3)c2c1CC, Cc1c(C(=O)NCCN2CCCC2)cn2ncnc(C3C(=O)Nc4ccccc43)c12 (stereo not drawn), CCc1c(C(=O)NCCN2CCCC2)cn2ncnc(Nc3ccc(OC)nc3)c12, COC(=O)c1cn2ncnc(Nc3cccc(C(=O)NN)c3)c2c1C, COC(=O)c1cn2ncnc(Nc3ccc(O)c(C(=O)O)c3)c2c1C, CCOC(=O)c1cn2ncnc(N3CCC4C=CC=CC4C3)c2c1CC (stereo not drawn), COC(=O)c1cn2ncnc(Nc3ccc(C)c(C)c3)c2c1C, CCOC(=O)c1cn2ncnc(Nc3ccc(F)c(Cl)c3)c2c1CC, Clc1ccc(Nc2ncnn3cccc23)cc1, CCCc1c(C(=O)NCCCN2CCOCC2)cn2ncnc(Nc3ccc(C)c(O)c3)c12, COC(=O)c1cn2ncnc(C3C(=O)Nc4ccc(S(=O)(=O)N(C)C)cc43)c2c1C (stereo not drawn), Cc1c(CCCN2CCOCC2)cn2ncnc(Nc3cccc(Br)c3)c12, Cc1ccc(Nc2ncnn3cc(CO)c(C)c23)cc1O, CCOC(=O)c1cn2ncnc(Nc3ccc(C)c(N)c3)c2c1CC, CCOC(=O)c1cn2ncnc(Cl)c2c1CC, CCOC(=O)c1cn2ncnc(Nc3ccc(C)c(O)c3)c2c1C(C)C, COC(=O)c1cn2ncnc(C3C(=O)Nc4ccc(F)cc43)c2c1C (stereo not drawn), CCc1c(C)c2c(Nc3ccc(C)c(O)c3)ncnn2c1C, COC(=O)c1cn2ncnc(C3C(=O)Nc4nc(C)ncc43)c2c1C (stereo not drawn), COC(=O)c1cn2ncnc(Nc3ccc(C(=O)O)c(O)c3)c2c1C, CCOC(=O)c1cn2ncnc(N[C@H](C)c3ccccc3)c2c1CC, COC(=O)c1cn2ncnc(Nc3ccc(C)c(N)c3)c2c1C, COC(=O)c1cn2ncnc(-n3[nH]c4ccccc4c3=O)c2c1C, CCc1c(C(=O)N(C)C)cn2ncnc(Nc3ccc4c(cnn4Cc4ccccc4)c3)c12, Cc1ccc(Nc2ncnn3cc(C(=O)NCCCS(C)(=O)=O)c(C)c23)cc1O, COC(=O)c1cn2ncnc(-n3[nH]c(=O)c4ccccc43)c2c1C, COCCNC(=O)c1cn2ncnc(C3C(=O)Nc4ccccc43)c2c1C (stereo not drawn), COC(=O)c1cn2ncnc(Oc3cccc(O)c3)c2c1C, CCOC(=O)c1cn2ncnc(N3CCOCC3)c2c1CC, COc1c(C(=O)N(C)CCN2CCCC2)cn2ncnc(Nc3ccc(Br)cc3F)c12, COc1ccc(Nc2ncnn3cc(C(=O)NCCCN4CCOCC4)c(C)c23)cc1O, CCOC(=O)c1cn2ncnc(Nc3ccc(OC)cc3)c2c1CC
